# Assay results as given in patent US11414489B2, “Combination therapy with a hyaluronan-degrading enzyme and an immune checkpoint inhibitor” (HALOZYME, INC., priority 2014, dated 2022).
# What was measured:
# [1] = glucocorticoid administration; route (IV or PO); cited from earlier work
# [2] = system: parental MH194+PSC4 syngeneic tumors; assay: Tumor growth in parental MH194+PSC4 syngeneic tumor mouse model (tumor volume, TGI); type: in vivo, C57BL/6 mice; details: for Tumor volume, Day 0: Day 0 (baseline); for Tumor volume, Day 0 / Tumor volume, Day 3 / Tumor volume, Day 7 / Tumor volume, Day 10 / Tumor volume, Day 14 / Tumor volume, Day 17 / Tumor volume, Day 21: mean ± SEM; for TGI (tumor growth inhibition): last day vs vehicle
# Description: MH194 mouse pancreatic carcinoma cells (derived from the KrasLSL.G12D/+p53R172H/+PdxCretg/+ genetically engineered mouse model) were engineered to constitutively express human hyaluronan synthase 3 (HAS3) as in Example 1A. Stably transduced cells, designated MH194/HAS3 cells, were selected by hygromycin treatment. MH194/HAS3 and parental MH194 cells were maintained in tissue culture as an adherent monolayer in DMEM medium supplemented with 2 mM L-glutamine and 10% fetal bovine serum at 37° C. and 5% CO2.
# Pancreas from C57BL/6 mice were minced with razor blades and placed in 2 mL of a digestion buffer containing 0.05% collagenase P, 0.1% DNAse, and 0.02% Pronase in Gey's balanced salt solution (GBSS). Following two […] digestion incubations at 37° C. with thorough mixing after each incubation, the resulting cell suspension was filtered through a 100 μm nylon mesh, washed twice in GBSS with 0.3% bovine serum albumin (BSA), and resuspended in 10 mL GBSS/BSA. Eight mL of Histodenz (Sigma, Cat. No. D2158) was added to the cell suspension, and the entire volume was pipetted under 6 mL GBSS/BSA in order to generate a discontinuous density gradient. Following centrifugation for 20 min at 1,400 g with the brake set at zero, the desired cells were harvested from the interface between the two density volumes and washed once with PBS and once with DMEM medium supplemented with 2 mM L-glutamine, 10% fetal bovine serum, and 1% amphotericin-B (complete DMEM). Cells were immortalized using Lenti-SV40 (Capital Biosciences, Cat. No. CIP-0011) using manufacturer's protocol. The resulting cell line, designated PSC4, were maintained in tissue culture as an adherent monolayer in complete DMEM at 37° C. and 5% CO2.
# MH194/HAS3 cells as described in part A above were trypsin-harvested at 80-90% confluency, washed twice with sterile Hanks Balanced Salt Solution (HBSS), and diluted with HBSS to a concentration of 4×10^6 cells/mL. Male C57BL/6 mice were obtained at 4-6 weeks from Taconic Farms and housed 4/cage. For tumor inoculations, mice were injected with 50 μL of cell suspension containing 2×10^5 MH194/HAS3 cells or parental MH194 cells along with 5×10^5 PSC4 (7×10^5 cells total) intramuscularly, adjacent to the right tibial periosteum.
# Tumor volumes were measured by ultrasound as in Example 1A2. Approximately 15-30 frames out of 150-200 frames were analyzed and a tumor volume calculated and expressed in mm^3. When using the HA quantitation procedure described in Example 1A3, tumors grown from parental MH194+PSC4 cells contained 263±16 ng HA/mg tissue, whereas tumors grown from MH194/HAS3+PSC4 cells contained 1783±99 ng HA/mg tissue.
# Mice containing parental MH194+PSC4 syngeneic tumors generated as described in Example 1C, with a mean tumor volume of 131±26 mm^3, were randomized into treatment groups, each containing 6 mice, such that the mean tumor volume of each group were substantially the same. Dexamethasone or saline (0.9% sodium chloride for injection) were administered intraperitoneally (IP) on days 0, 3, 7, 10, 14, and 17, and anti-PD-1 (BioXCell Inc, clone RMP1-14, Cat. No. BE0146) or saline were administered intraperitoneally (IP) on days 1, 4, 8, 11, 15, and 18, all at the dose levels indicated in Table 27. Tumor volumes were measured on days 0, 3, 7, 10, 14, 17, and 21. The middle dexamethasone dose level (3 mg/kg) was selected to approximate the human dose equivalent for clinical trials in which PEGPH20 is administered with dexamethasone to alleviate musculoskeletal discomfort.
# [3] = Dex 1 mg/kg IP 24 h prior to saline or α-PD-1 4 mg/kg IP
# [4] = Dex 3 mg/kg IP 24 h prior to saline or α-PD-1 4 mg/kg IP
# [5] = Dex 5 mg/kg IP 24 h prior to saline or α-PD-1 4 mg/kg IP
smiles,measurement,setting,value
C[C@H]1C[C@@H]2[C@H]([C@@H](O)C[C@@]3(C)[C@H]2CC[C@]3(O)C(=O)COC(=O)CCC(=O)O)[C@@]2(C)C=CC(=O)C=C12 [Methylprednisolone sodium succinate],Equivalent Potency,[1],4 mg
C[C@@H]1C[C@H]2[C@@H]3CCC4=CC(=O)C=C[C@]4(C)[C@@]3(F)[C@@H](O)C[C@]2(C)[C@@]1(O)C(=O)CO [Dex],"Tumor volume, Day 0",[2]; [3],133 ± 8 mm^3
same,"Tumor volume, Day 0",[2]; [4],133 ± 9 mm^3
same,"Tumor volume, Day 0",[2]; [5],125 ± 10 mm^3
same,"Tumor volume, Day 3",[2]; [3],240 ± 19 mm^3
same,"Tumor volume, Day 3",[2]; [4],253 ± 17 mm^3
same,"Tumor volume, Day 3",[2]; [5],251 ± 22 mm^3
same,"Tumor volume, Day 7",[2]; [3],374 ± 39 mm^3
same,"Tumor volume, Day 7",[2]; [4],436 ± 23 mm^3
same,"Tumor volume, Day 7",[2]; [5],390 ± 46 mm^3
same,"Tumor volume, Day 10",[2]; [3],581 ± 50 mm^3
same,"Tumor volume, Day 10",[2]; [4],553 ± 63 mm^3
same,"Tumor volume, Day 10",[2]; [5],462 ± 46 mm^3
same,"Tumor volume, Day 14",[2]; [3],904 ± 81 mm^3
same,"Tumor volume, Day 14",[2]; [4],759 ± 81 mm^3
same,"Tumor volume, Day 14",[2]; [5],729 ± 77 mm^3
same,"Tumor volume, Day 17",[2]; [3],1354 ± 147 mm^3
same,"Tumor volume, Day 17",[2]; [4],1346 ± 109 mm^3
same,"Tumor volume, Day 17",[2]; [5],1202 ± 118 mm^3
same,"Tumor volume, Day 21",[2]; [3],1899 ± 155 mm^3
same,"Tumor volume, Day 21",[2]; [4],1867 ± 130 mm^3
same,"Tumor volume, Day 21",[2]; [5],1630 ± 126 mm^3
same,TGI (tumor growth inhibition),[2]; [3],19%
same,TGI (tumor growth inhibition),[2]; [4],21%
same,TGI (tumor growth inhibition),[2]; [5],31%
C[C@]12C=CC(=O)C=C1CC[C@@H]1[C@@H]2[C@@H](O)C[C@@]2(C)[C@H]1CC[C@]2(O)C(=O)CO [Prednisolone],Equivalent Potency,[1],5 mg
C[C@]12CCC(=O)C=C1CC[C@@H]1[C@@H]2[C@@H](O)C[C@@]2(C)[C@H]1CC[C@]2(O)C(=O)CO [Hydrocortisone],Equivalent Potency,[1],20 mg
